Like-named read-outs stand apart in the source and are kept apart here.
Tests used:
[1] = molecular target: human cytidine deaminase (CDA) (Homo sapiens, UniProt P32320); test: Metabolism by human cytidine deaminase (CDA), substrate absorbance at 290 nm
cancer cell lines = test: Cancer cell proliferation activity (CellTiterGlo, 72 h); type: cell-based; conditions: for IC50: 72 h, read-out: IC50 cell proliferation
How it was run: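 Cells seeded overnight at 37 °C, then dosed with compound at 0.1% final DMSO and incubated 72 h at 37 °C (5% or 10% CO2 by medium).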

human cytidine deaminase (CDA), sequence (P32320 whole entry): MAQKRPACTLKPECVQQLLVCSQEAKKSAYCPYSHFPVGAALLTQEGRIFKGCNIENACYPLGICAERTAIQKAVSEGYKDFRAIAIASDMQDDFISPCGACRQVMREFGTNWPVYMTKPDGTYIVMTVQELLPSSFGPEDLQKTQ

With Nc1nc(=O)n([C@H]2C[C@H](O)[C@](CO)(CF)O2)cc1F [Cpd. No. 197, 4-amino-5-fluoro-1-((2R,4S,5R)-5-(fluoromethyl)-4-hydroxy-5-(hydroxymethyl)tetrahydrofuran-2-yl)pyrimidin-2(1H)-one] as the compound, how does the “metabolism (deamination) by human CDA (line graph)” value ([1]; 12 nM CDA, 50 and 200 uM substrate, 37° C., pH 7.5, figure legends FIG. 4-9) read?
The value was “not metabolized”.

What about the “substrate conversion by CDA (Inactive)” value ([1]; rate of substrate conversion at 200 μM, could not be fitted) of the same compound?
The value was “Inactive”.

What about the IC50 (cancer cell lines; 5637 (bladder)) of the same compound?
The IC50 was 4 nM.

What about the IC50 (cancer cell lines; CLS439 (bladder)) of the same compound?
The IC50 was over 50000 nM.

And the IC50 (cancer cell lines; HS729 (muscle))?
Its IC50 is over 50000 nM.

What about the IC50 (cancer cell lines; J82 (bladder)) of the same compound?
Its IC50 is 216 nM.

What about the IC50 (cancer cell lines; JAR (placenta)) of the same compound?
The IC50 was over 50000 nM.

And the IC50 (cancer cell lines; MT3 (breast))?
The IC50 was 16 nM.

What about the IC50 (cancer cell lines; PANCI (pancreas)) of the same compound?
Its IC50 is over 50000 nM.

And the IC50 (cancer cell lines; PC3 (prostate))?
Its IC50 is over 50000 nM.

And the IC50 (cancer cell lines; RD (muscle))?
The IC50 was 66 nM.

What about the IC50 (cancer cell lines; T24 (bladder)) of the same compound?
The IC50 was 98 nM.

And the IC50 (cancer cell lines; Homo sapiens, 22Rv1, 72 h, 22RV1 (prostate))?
The IC50 was 84 nM.

What about the IC50 (cancer cell lines; Homo sapiens, 786-0, 72 h, 786O (kidney)) of the same compound?
The IC50 was over 50000 nM.

What about the IC50 (cancer cell lines; Homo sapiens, A204, 72 h, A204 (muscle)) of the same compound?
Its IC50 is 716 nM.

And the IC50 (cancer cell lines; Homo sapiens, A549, 72 h, A549 (lung))?
Its IC50 is 75 nM.

And the IC50 (cancer cell lines; Homo sapiens, A673, 72 h, A673 (bone))?
The IC50 was 110 nM.

What about the IC50 (cancer cell lines; Homo sapiens, A2780, 72 h, A2780 (ovary)) of the same compound?
Its IC50 is 213 nM.

And the IC50 (cancer cell lines; Homo sapiens, A-375, 72 h, A375 (skin))?
Its IC50 is 183 nM.

What about the IC50 (cancer cell lines; Homo sapiens, A-431, 72 h, A431 (skin)) of the same compound?
The IC50 was 2 nM.

What about the IC50 (cancer cell lines; Homo sapiens, ACHN, ACHN (kidney)) of the same compound?
The IC50 was 12 nM.

And the IC50 (cancer cell lines; Homo sapiens, ASPC1, 72 h, ASPC1 (pancreas))?
Its IC50 is 11 nM.

What about the IC50 (cancer cell lines; Homo sapiens, BT-20, 72 h, BT20 (breast)) of the same compound?
Its IC50 is over 50000 nM.

And the IC50 (cancer cell lines; Homo sapiens, BXPC-3, 72 h, BXPC3 (pancreas))?
Its IC50 is 0.4 nM.

And the IC50 (cancer cell lines; Homo sapiens, C-33-A, C33A (endometrial))?
Its IC50 is 47 nM.

What about the IC50 (cancer cell lines; Homo sapiens, CAKI-1, 72 h, CAKI1 (kidney)) of the same compound?
Its IC50 is over 50000 nM.

What about the IC50 (cancer cell lines; Homo sapiens, COLO 205, 72 h, COLO205 (colon)) of the same compound?
Its IC50 is 18 nM.

And the IC50 (cancer cell lines; Homo sapiens, COLO-678, 72 h, COLO678 (colon))?
The IC50 was over 50000 nM.

And the IC50 (cancer cell lines; Homo sapiens, Ca-Ski, CASKI (endometrial))?
Its IC50 is over 50000 nM.

And the IC50 (cancer cell lines; Homo sapiens, Caco-2, 72 h, CACO2 (colon))?
Its IC50 is over 50000 nM.

And the IC50 (cancer cell lines; Homo sapiens, Calu-6, 72 h, CALU6 (lung))?
The IC50 was 76 nM.

What about the IC50 (cancer cell lines; Homo sapiens, DLD-1, 72 h, DLD1 (colon)) of the same compound?
The IC50 was 8970 nM.

And the IC50 (cancer cell lines; Homo sapiens, DU-145, 72 h, DU145 (prostate))?
Its IC50 is 425 nM.

What about the IC50 (cancer cell lines; Homo sapiens, EFO-21, 72 h, EFO21 (ovary)) of the same compound?
The IC50 was over 50000 nM.

What about the IC50 (cancer cell lines; Homo sapiens, EJ-28, 72 h, EJ28 (bladder)) of the same compound?
Its IC50 is 66 nM.

And the IC50 (cancer cell lines; Homo sapiens, Granta-519, 72 h, GRANTA-519 (hematological))?
Its IC50 is 10 nM.

And the IC50 (cancer cell lines; Homo sapiens, HCT-15, 72 h, HCT15 (colon))?
Its IC50 is 1380 nM.

What about the IC50 (cancer cell lines; Homo sapiens, HCT-116, 72 h, HCT116 (colon)) of the same compound?
The IC50 was 1110 nM.

And the IC50 (cancer cell lines; Homo sapiens, HEK293, 72 h, HEK293 (kidney))?
Its IC50 is over 50000 nM.

And the IC50 (cancer cell lines; Homo sapiens, HL-60, 72 h, HL-60 (hematological))?
The IC50 was 247 nM.

What about the IC50 (cancer cell lines; Homo sapiens, HT-29, 72 h, HT29 (colon)) of the same compound?
Its IC50 is 60 nM.

And the IC50 (cancer cell lines; Homo sapiens, HT-1080, 72 h, HT1080 (connective tissue))?
Its IC50 is 46 nM.

And the IC50 (cancer cell lines; Homo sapiens, HeLa, HELA (endometrial))?
Its IC50 is over 50000 nM.

What about the IC50 (cancer cell lines; Homo sapiens, HepG2, 72 h, HEPG2 (liver)) of the same compound?
The IC50 was 89 nM.

And the IC50 (cancer cell lines; Homo sapiens, Hs-578T, HS578T (breast))?
Its IC50 is over 50000 nM.

What about the IC50 (cancer cell lines; Homo sapiens, IGROV-1, 72 h, IGROV1 (ovary)) of the same compound?
The IC50 was 1590 nM.

What about the IC50 (cancer cell lines; Homo sapiens, IMR-90, 72 h, IMR90 (lung)) of the same compound?
The IC50 was over 50000 nM.

What about the IC50 (cancer cell lines; Homo sapiens, JEG-3, 72 h, JEG3 (placenta)) of the same compound?
The IC50 was 37 nM.

What about the IC50 (cancer cell lines; Homo sapiens, JIMT-1, 72 h, JIMT1 (breast)) of the same compound?
Its IC50 is over 50000 nM.

What about the IC50 (cancer cell lines; Homo sapiens, K562, 72 h, K-562 (hematological)) of the same compound?
The IC50 was over 50000 nM.

And the IC50 (cancer cell lines; Homo sapiens, Kasumi 1, 72 h, KASUMI-1 (hematological))?
Its IC50 is 76 nM.

And the IC50 (cancer cell lines; Homo sapiens, L-363, 72 h, L-363 (hematological))?
The IC50 was over 50000 nM.

And the IC50 (cancer cell lines; Homo sapiens, LoVo, LOVO (colon))?
Its IC50 is 6 nM.

And the IC50 (cancer cell lines; Homo sapiens, MCF7, 72 h, MCF7 (breast))?
The IC50 was 181 nM.

And the IC50 (cancer cell lines; Homo sapiens, MDA-MB-231, 72 h, MDAMB231 (breast))?
Its IC50 is over 50000 nM.

And the IC50 (cancer cell lines; Homo sapiens, MDA-MB-435, 72 h, MDAMB435 (skin))?
The IC50 was 924 nM.

And the IC50 (cancer cell lines; Homo sapiens, MDA-MB-436, 72 h, MDAMB436 (breast))?
Its IC50 is 41 nM.

What about the IC50 (cancer cell lines; Homo sapiens, MDA-MB-468, 72 h, MDAMB468 (breast)) of the same compound?
Its IC50 is over 50000 nM.

What about the IC50 (cancer cell lines; Homo sapiens, MG-63, 72 h, MG63 (bone)) of the same compound?
Its IC50 is 361 nM.

What about the IC50 (cancer cell lines; Homo sapiens, MHH-ES-1, 72 h, MHHES1 (bone)) of the same compound?
The IC50 was 2560 nM.

What about the IC50 (cancer cell lines; Homo sapiens, MIA PaCa-2, 72 h, MIAPACA2 (pancreas)) of the same compound?
The IC50 was 904 nM.

What about the IC50 (cancer cell lines; Homo sapiens, MINO, MINO (hematological)) of the same compound?
Its IC50 is 2 nM.

What about the IC50 (cancer cell lines; Homo sapiens, MV4-11, 72 h, MV4-11 (hematological)) of the same compound?
The IC50 was 44 nM.

And the IC50 (cancer cell lines; Homo sapiens, NCI-H23, 72 h, NCI-H23 (lung))?
The IC50 was 334 nM.

And the IC50 (cancer cell lines; Homo sapiens, NCI-H82, 72 h, NCIH82 (lung))?
The IC50 was 87 nM.

What about the IC50 (cancer cell lines; Homo sapiens, NCI-H292, 72 h, NCIH292 (lung)) of the same compound?
The IC50 was 114 nM.

What about the IC50 (cancer cell lines; Homo sapiens, NCI-H460, 72 h, NCIH460 (lung)) of the same compound?
The IC50 was 61 nM.

And the IC50 (cancer cell lines; Homo sapiens, OVCAR-3, 72 h, OVCAR3 (ovary))?
Its IC50 is over 50000 nM.

What about the IC50 (cancer cell lines; Homo sapiens, OVCAR-4, 72 h, OVCAR4 (ovary)) of the same compound?
The IC50 was over 50000 nM.

And the IC50 (cancer cell lines; Homo sapiens, PLC-PRF-5, 72 h, PLCPRF5 (liver))?
The IC50 was over 50000 nM.

And the IC50 (cancer cell lines; Homo sapiens, Panc1005, 72 h, PANC1005 (pancreas))?
The IC50 was over 50000 nM.

What about the IC50 (cancer cell lines; Homo sapiens, Ramos, RAMOS (hematological)) of the same compound?
Its IC50 is 292 nM.

And the IC50 (cancer cell lines; Homo sapiens, SAOS-2, 72 h, SAOS2 (bone))?
Its IC50 is 6 nM.

What about the IC50 (cancer cell lines; Homo sapiens, SF-268, 72 h, SF268 (brain)) of the same compound?
The IC50 was 187 nM.

And the IC50 (cancer cell lines; Homo sapiens, SF-295, 72 h, SF295 (brain))?
Its IC50 is over 50000 nM.

And the IC50 (cancer cell lines; Homo sapiens, SK-BR-3, 72 h, SKBR3 (breast))?
Its IC50 is 5 nM.

What about the IC50 (cancer cell lines; Homo sapiens, SK-HEP1, 72 h, SKHEP1 (liver)) of the same compound?
Its IC50 is 1320 nM.

And the IC50 (cancer cell lines; Homo sapiens, SK-LMS-1, 72 h, SKLMS1 (uterus))?
Its IC50 is 298 nM.

And the IC50 (cancer cell lines; Homo sapiens, SK-MEL-5, 72 h, SKMEL5 (skin; SKMELS [sic] in Table 9E))?
Its IC50 is over 50000 nM.

And the IC50 (cancer cell lines; Homo sapiens, SK-MEL-28, 72 h, SKMEL28 (skin))?
Its IC50 is over 50000 nM.

And the IC50 (cancer cell lines; Homo sapiens, SK-N-AS, SKNAS (brain))?
Its IC50 is over 50000 nM.

And the IC50 (cancer cell lines; Homo sapiens, SK-N-SH, SKNSH (brain))?
Its IC50 is over 50000 nM.

What about the IC50 (cancer cell lines; Homo sapiens, SK-OV-3, 72 h, SKOV3 (ovary)) of the same compound?
The IC50 was 71 nM.

And the IC50 (cancer cell lines; Homo sapiens, SNB-75, 72 h, SNB75 (brain))?
Its IC50 is over 50000 nM.

And the IC50 (cancer cell lines; Homo sapiens, SU-DHL10, 72 h, SU-DHL-10 (hematological))?
Its IC50 is 1160 nM.

And the IC50 (cancer cell lines; Homo sapiens, SU-DHL-6, 72 h, SU-DHL-6 (hematological))?
The IC50 was 143 nM.

And the IC50 (cancer cell lines; Homo sapiens, SW-620, 72 h, SW620 (colon))?
The IC50 was 82 nM.

What about the IC50 (cancer cell lines; Homo sapiens, TE-671, 72 h, TE671 (muscle)) of the same compound?
The IC50 was 82 nM.

What about the IC50 (cancer cell lines; Homo sapiens, THP-1, 72 h, THP-1 (hematological)) of the same compound?
Its IC50 is 131 nM.

And the IC50 (cancer cell lines; Homo sapiens, U2OS, U20S (bone; U2OS in Table 9E))?
The IC50 was over 50000 nM.

What about the IC50 (cancer cell lines; Homo sapiens, U-87 MG, U87MG (brain)) of the same compound?
Its IC50 is over 50000 nM.

What about the IC50 (cancer cell lines; Homo sapiens, UMUC3, 72 h, UMUC3 (bladder)) of the same compound?
The IC50 was 228 nM.

And the IC50 (cancer cell lines; Homo sapiens, UO-31, 72 h, UO31 (kidney))?
Its IC50 is over 50000 nM.

And the IC50 (cancer cell lines; Homo sapiens, WSU-NHL, WSU-NHL (hematological))?
The IC50 was 448 nM.

And the IC50 (cancer cell lines; NCI-H358M, NCIH358M (lung))?
Its IC50 is 19 nM.

What about the IC50 (cancer cell lines; PBMC, PBMC (hematological)) of the same compound?
Its IC50 is 3020 nM.

And the IC50 (cancer cell lines; RD-ES, RDES (bone))?
Its IC50 is 10400 nM.

What about the “cytotoxicity against a panel of cell lines (waterfall plot)” value (cancer cell lines; panel of cancer and non-cancer cell lines, figure legends FIG. 1-3) of the same compound?
Its value is “selectively cytotoxic in cancer cell lines with high DDR activity”.
